From patent publication US20100130613A1, “ADMINISTRATION OF ADAPALENE FOR MODULATING THE EXPRESSION OF CD1d OR IL-10” (GALDERMA RESEARCH & DEVELOPMENT, priority 2007, published 2010)

Experiments:
CD1d [1] = assay: CD1d expression in healthy human skin explants, immunohistochemistry; assay type: cell-based; settings: 24 hours, versus control medium
Method: (§1) Healthy human skin: fragments of healthy skin originating from 8 healthy donors were obtained from a mammary plasty (plastic surgery) or a foreskin (infant surgery).
(§2) Fragments (4 mm in diameter) originating from biopsies of inflammatory skin, considered to be an inflammatory model, and of healthy skin, were incubated at 37° C. in a humid atmosphere and in the presence of 5% CO2 for 24 hours in KGM culture medium without hydrocortisone (PromoCell GmbH, Heidelberg, Germany). The culture medium was supplemented with two different concentrations of adapalene (Galderma, Sophia Antipolis, France): 10^−7 M and 10^−6 M. The culture medium alone served as control medium.
(§3) After incubation, the explants were removed from the culture medium and were then frozen in liquid nitrogen for the immunohistochemical study. The culture supernatants were stored at −80° C. for subsequent measurement of protein secretion, by an ELISA assay technique. […]
(§4) The labeling intensity was quantified according to a semi-quantitative scale: none (0), weak (1), medium (2) and strong (3). For each slide, the labeling intensity was determined using a mean of three fields. […] The reading was performed by two independent investigators.
(§5) All the results are expressed as mean +/−SEM. The statistical significance of differences from the values (by comparison to the control medium) was determined by means of the paired Wilcoxon test. […]

CD1d [2] = assay: CD1d expression in acneic skin explants, immunohistochemistry; assay type: cell-based, human; settings: 24 hours, control medium 0.9 (+/−0.2), p=0.034
Source text: (§6) Inflammatory lesions of acne: a skin biopsy (1×1.5 cm) was obtained under local anaesthesia from a superficial inflammatory lesion (papula) on the back in 8 patients suffering from moderate acne and undergoing no topical treatment (for the last two weeks) or general treatment (for the last month, or three months for isotretinoin). The fragments taken were immediately placed in culture.
as §2, with “medium. […]” for “medium.”
as §4, §5

IL-10 [3] = assay: IL-10 expression in healthy human skin explants, immunohistochemistry; assay type: cell-based; settings: 24 hours
Method: as §1, §2, §3, §4, §5

IL-10 [4] = assay: IL-10 expression in acneic skin explants, immunohistochemistry; assay type: cell-based, human; settings: 24 hours, control medium 1.9 (+/−0.4)
Source text: as §6
as §2, with “medium. […]” for “medium.”
as §4, §5

IL-10 [5] = assay: IL-10 secretion in culture supernatants of healthy human skin explants, ELISA; assay type: cell-based; settings: 24 hours, control medium 17.8 pg/ml
Method: as §1, §2
After incubation, the explants were removed from the culture medium and were then frozen in liquid nitrogen for the immunohistochemical study. […]
(§7) The concentrations of IL-10 were measured in the culture supernatants using a solid-phase ELISA (Enzyme Linked ImmunoSorbent Assay) sandwich kit, obtained from BioSource (International Inc, Ca, USA).
(§8) The slides were read at 450 nm using an Emax reader (Molecular Devices, CA, USA). […]
as §5

IL-10 [6] = assay: IL-10 secretion in culture supernatants of acneic skin explants, ELISA; assay type: cell-based, human; settings: 24 hours, control medium 5.7 pg/ml (+/−7.1)
Source text: as §6
as §2, with “medium. […]” for “medium.”
as §7, §8, §5

RARγ = target: T1, RARγ (Homo sapiens, UniProt P13631); settings: background statement; cited from earlier work
T1 sequence (P13631 1-454): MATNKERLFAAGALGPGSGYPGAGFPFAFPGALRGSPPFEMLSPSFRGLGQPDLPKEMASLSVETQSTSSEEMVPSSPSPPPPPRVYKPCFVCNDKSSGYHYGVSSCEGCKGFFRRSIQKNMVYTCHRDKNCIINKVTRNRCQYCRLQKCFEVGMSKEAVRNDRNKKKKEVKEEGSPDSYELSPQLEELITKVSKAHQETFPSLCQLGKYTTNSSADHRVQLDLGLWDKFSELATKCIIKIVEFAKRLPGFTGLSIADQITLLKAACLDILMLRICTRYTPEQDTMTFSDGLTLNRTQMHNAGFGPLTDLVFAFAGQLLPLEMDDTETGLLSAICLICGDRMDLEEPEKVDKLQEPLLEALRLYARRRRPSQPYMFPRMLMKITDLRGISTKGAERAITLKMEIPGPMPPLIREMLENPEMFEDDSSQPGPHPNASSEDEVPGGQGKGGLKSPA

RARβ = target: T2, RARβ (Homo sapiens, UniProt P10826); settings: background statement; cited from earlier work
T2 sequence (P10826 1-455): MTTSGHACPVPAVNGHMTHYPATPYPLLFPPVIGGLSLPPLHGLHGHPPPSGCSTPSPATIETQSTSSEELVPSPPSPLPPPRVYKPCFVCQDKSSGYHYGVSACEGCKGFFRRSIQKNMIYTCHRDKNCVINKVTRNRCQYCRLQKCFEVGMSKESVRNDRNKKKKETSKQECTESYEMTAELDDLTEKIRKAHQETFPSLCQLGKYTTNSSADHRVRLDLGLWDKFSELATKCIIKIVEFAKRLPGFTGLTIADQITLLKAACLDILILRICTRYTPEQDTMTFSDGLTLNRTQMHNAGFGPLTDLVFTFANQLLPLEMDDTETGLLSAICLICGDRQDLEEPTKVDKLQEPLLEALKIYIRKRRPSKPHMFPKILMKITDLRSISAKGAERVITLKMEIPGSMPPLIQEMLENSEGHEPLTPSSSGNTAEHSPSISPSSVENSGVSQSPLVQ

[7] = system: cellular retinoic acid binding proteins; settings: background statement; cited from earlier work
lipoxygenase pathway = settings: background statement; cited from earlier work
[8] = system: polymorphonuclear neutrophils; settings: background statement; cited from earlier work
free radicals = settings: background statement; cited from earlier work
leukotrienes = settings: background statement; cited from earlier work
[9] = system: superficial inflammatory lesions; settings: clinically; Millikan, Int. J. Dermatol. 2000; cited from earlier work

With `COc1ccc(-c2ccc3cc(C(=O)O)ccc3c2)cc1C12CC3CC(CC(C3)C1)C2` [adapalene, 6-[3-(1-adamantyl)-4-methoxyphenyl]-2-naphthoic acid] the “expression of CD1d in the epidermis (labeling intensity)” value (CD1d [1]; 10^−6 M adapalene, p=0.035) was “significantly decreases”, the “expression of CD1d in the epidermis (labeling intensity)” value (CD1d [1]; 10^−7 M adapalene, p=0.023) was “significantly decreases” and the “expression of CD1d (labeling intensity, scale 0-3, mean +/−SEM)” value (CD1d [2]; 10^−6 M adapalene) was 1.5 (+/−0.5). The “expression of CD1d (labeling intensity, scale 0-3, mean +/−SEM)” value (CD1d [2]; 10^−7 M adapalene) was 1.5 (+/−0.5), the “inhibitory effect on the expression of IL-10” value (IL-10 [3]; 10^−6 M adapalene, versus control medium, p=0.016) was “significant” and the “expression of IL-10 in the epidermis (labeling intensity)” value (IL-10 [3]; 10^−7 M and 10^−6 M adapalene, dose-dependent) was “significantly decreases”. For the same molecule, the “intensity of IL-10 expression (scale 0-3, mean +/−SEM)” value (IL-10 [4]; 10^−6 M adapalene, p=0.0199) was 0.6 (+/−0.2), the “intensity of IL-10 expression (scale 0-3, mean +/−SEM)” value (IL-10 [4]; 10^−7 M adapalene, p=0.024) was 0.9 (+/−0.2) and the “secretion of IL-10 in supernatants” value (IL-10 [5]; 10^−6 M adapalene) was “No modulation”. The “secretion of IL-10 in supernatants” value (IL-10 [5]; 10^−7 M adapalene) was “increases the secretion of IL-10”, the “IL-10 level in supernatants” value (IL-10 [6]; 10^−6 M adapalene) was 4.0 pg/mL and the “IL-10 level in supernatants” value (IL-10 [6]; 10^−7 M adapalene) was 6.1 pg/mL. For the same molecule, the “binding to RARγ” value (RARγ) was “binds selectively”, the “binding to RARβ” value (RARβ) was “binds selectively” and the “binding to cellular retinoic acid binding proteins” value [7] was “does not, on the other hand, bind”. The “oxidative metabolism of arachidonic acid via the lipoxygenase pathway” value (lipoxygenase pathway) was “inhibits”, the “chemotaxis of polymorphonuclear neutrophils” value [8] was “inhibits” and the “production of free radicals” value (free radicals) was “inhibits”. The “production of leukotrienes via the lipoxygenase pathway” value (leukotrienes) was “inhibits” and the “clinical activity on superficial inflammatory lesions” value [9] was “exhibits an activity on superficial inflammatory lesions”.
